Results from patent publication US20170150719A1, “FUNGICIDAL PYRAZOLES AND THEIR MIXTURES” (E I DU PONT DE NEMOURS AND COMPANY, priority 2010, published 2017).
Marks after values point to notes of the source that are not given here.

What was measured:
[1] = system: Septoria nodorum; assay: Test E: Septoria glume blotch, preventive spray on wheat seedlings, visual disease rating; settings: 100 = 100% disease control; for Test E rating (disease control): Septoria glume blotch; for Test E rating (disease control) / pest or weed control at 200 µg/mL: 0 = no disease control relative to the controls; for Test E rating (% disease control): Septoria glume blotch on wheat, preventive spray, rating without asterisk; for pest or weed control at 200 µg/mL: Parastagonospora nodorum, in Triticum aestivum, read-out: Test E rating (disease control), Septoria glume blotch
[2] = system: Puccinia recondita f. sp. tritici; assay: Test G: wheat leaf rust, spray after inoculation (curative) on wheat seedlings, visual disease rating; assay type: in vivo; settings: 100 = 100% disease control; for Test G rating (disease control) / pest or weed control at 200 µg/mL: sprayed after inoculation, 0 = no disease control; for Test G rating (% disease control): spray after inoculation, rating without asterisk
Text: (§1) A hyphen (-) indicates no test results.

[3] = system: Puccinia recondita f. sp. tritici; assay: Test H: wheat leaf rust, preventive spray on wheat seedlings, visual disease rating; settings: 100 = 100% disease control; for Test H rating (disease control) / Test H rating (% disease control): wheat leaf rust; for Test H rating (disease control): sprayed the day before inoculation; for Test H rating (disease control) / pest or weed control at 200 µg/mL: 0 = no disease control; for Test H rating (% disease control): preventive spray, rating without asterisk; for pest or weed control at 200 µg/mL: read-out: Test H rating (disease control), wheat leaf rust, sprayed the day before inoculation
Experimental: General protocol for preparing test suspensions for Tests A-I: the test compounds were first dissolved in acetone in an amount equal to 3% of the final volume and then suspended at the desired concentration (in ppm) in acetone and purified water (50/50 mix by volume) containing 250 ppm of the surfactant Trem® 014 (polyhydric alcohol esters). The resulting test suspensions were then used in Tests A-I. Each test was conducted in triplicate, and the results were averaged. Spraying a 200 ppm test suspension to the point of run-off on the test plants was the equivalent of a rate of about 800 g/ha. Unless otherwise indicated, the rating values indicate a 200 ppm test suspension was used. (An asterisk “*” next to the rating value indicates a 40 ppm test suspension was used.)
The test suspension was sprayed to the point of run-off on wheat seedlings. The following day the seedlings were inoculated with a spore suspension of Puccinia recondita f. sp. tritici (the causal agent of wheat leaf rust) and incubated in a saturated atmosphere at 20° C. for 24 h, and then moved to a growth chamber at 20° C. for 6 days, after which time visual disease ratings were made.

[4] = system: Botrytis cinerea; assay: Test A: tomato Botrytis, preventive spray on tomato seedlings, visual disease rating; settings: 100 = 100% disease control; for Test A rating (disease control) / Test A rating (% disease control): tomato Botrytis; for Test A rating (disease control) / pest or weed control at 200 µg/mL: 0 = no disease control relative to the controls; for Test A rating (% disease control): preventive spray, 0 = no control relative to controls, rating without asterisk; for pest or weed control at 200 µg/mL: Botrytis cinerea, in Solanum lycopersicum, read-out: Test A rating (disease control), tomato Botrytis
[5] = system: Blumeria graminis f. sp. tritici; assay: Test I: wheat powdery mildew, preventive spray on wheat seedlings, visual disease rating; settings: for Test I rating (disease control) / Test I rating (% disease control) / pest or weed control at 200 µg/mL: 100 = 100% disease control; for Test I rating (disease control) / pest or weed control at 200 µg/mL: 0 = no disease control relative to the controls; for Test I rating (% disease control): preventive spray, rating without asterisk; for pest or weed control at 200 µg/mL: Blumeria graminis, in Triticum aestivum, read-out: Test I rating (disease control), wheat powdery mildew
[6] = system: Septoria tritici; assay: Test F: wheat leaf blotch, preventive spray on wheat seedlings, visual disease rating; assay type: in vivo; settings: 100 = 100% disease control; for Test F rating (disease control) / pest or weed control at 200 µg/mL: 0 = no disease control relative to the controls; for Test F rating (% disease control): preventive spray, rating without asterisk; for pest or weed control at 200 µg/mL: Zymoseptoria tritici
Text: as §1

[7] = system: Alternaria solani; assay: Test B: tomato early blight, preventive spray on tomato seedlings, visual disease rating; settings: for Test B rating (disease control) / Test B rating (% disease control): tomato early blight, 100 = 100% disease control; for Test B rating (disease control): 0 = no disease control relative to the controls; for Test B rating (% disease control): preventive spray, rating without asterisk; for pest or weed control at 200 µg/mL: Alternaria solani, in Solanum lycopersicum, read-out: Test B rating (disease control)

SMILES | Test E rating (disease control) [1] | Test G rating (disease control) [2] | Test H rating (disease control) [3] | Test A rating (disease control) [4] | Test I rating (disease control) ([5]; wheat powdery mildew) | Test F rating (disease control) [6] | Test B rating (disease control) [7] | other results
COc1ccc(-c2c(C)nn(C)c2Nc2c(F)cccc2F)c(Cl)c1 [compound 43] | 0% | 95% | 100% | 98% | 98% | 100% | 100% | –
Cc1nn(C)c(Nc2ccc(Br)cc2Br)c1-c1ccc(F)cc1Cl [compound 183] | – | – | – | – | – | – | – | Test E rating (% disease control) [1]: 0%; Test G rating (% disease control) [2]: 54%; Test H rating (% disease control) [3]: 96%; Test A rating (% disease control) [4]: 100%; Test I rating (% disease control) ([5]; wheat powdery mildew): 98%; Test F rating (% disease control) [6]: 100%; Test B rating (% disease control) [7]: 0%
COc1cc(F)c(Nc2c(-c3c(F)cccc3Cl)c(C)nn2C)c(F)c1 [compound 55] | 80% | 94% | 100% | 99% | 99% | 100% | 99% | –
Cc1nn(C)c(Nc2ccc(Cl)cc2Cl)c1-c1c(Cl)cccc1Cl [compound 105] | 0% | 0% | 96% | 99% | 99% | 100% | 0% | –
COc1cc(Cl)c(Nc2c(-c3ccc(F)cc3Cl)c(C)nn2C)c(Cl)c1 [compound 85] | 0% | 0% | 99% | 99% | – | 100% | 0% | Test I rating (disease control), value marked * ([5]; wheat powdery mildew, rating marked with asterisk (*), not explained in the text shown): 99* %
Cc1nn(C)c(Nc2c(F)cc(F)cc2F)c1-c1ccc(F)cc1F [Compound 11, 4-(2,4-difluorophenyl)-1,3-dimethyl-N-(2,4,6-trifluorophenyl)-1H-pyrazol-5-amine] | – | – | – | – | – | – | – | pest or weed control at 200 µg/mL [1]: 90%; pest or weed control at 200 µg/mL [2]: 0%; pest or weed control at 200 µg/mL [3]: 100%; pest or weed control at 200 µg/mL [4]: 100%; pest or weed control at 200 µg/mL [5]: 99%; pest or weed control at 200 µg/mL [6]: 94%; pest or weed control at 200 µg/mL [7]: 99%
CCOc1ccc(-c2c(C)nn(C)c2Nc2ccc(F)cc2F)c(Cl)c1 [compound 209] | – | – | – | – | – | – | – | Test E rating (% disease control) [1]: 0%; Test G rating (% disease control) [2]: 0%; Test H rating (% disease control) [3]: 92%; Test A rating (% disease control) [4]: 98%; Test I rating (% disease control) ([5]; wheat powdery mildew): 100%; Test F rating (% disease control) [6]: 100%; Test B rating (% disease control) [7]: 95%
Cc1nn(C)c(Oc2c(F)cc(C#N)cc2F)c1-c1ccc(F)cc1Br [Compound 65, 4-[[4-(2-bromo-4-fluorophenyl)-1,3-dimethyl-1H-pyrazol-5-yl]oxy]-3,5-difluorobenzonitrile] | – | – | – | – | – | – | – | pest or weed control at 200 µg/mL [1]: 99%; pest or weed control at 200 µg/mL [2]: 0%; pest or weed control at 200 µg/mL [3]: 100%; pest or weed control at 200 µg/mL [4]: 100%; pest or weed control at 200 µg/mL [5]: 100%; pest or weed control at 200 µg/mL [6]: 100%; pest or weed control at 200 µg/mL [7]: 99%
Cc1nn(C)c(Nc2c(F)cc(F)cc2I)c1-c1ccc(F)cc1F [compound 214] | – | – | – | – | – | – | – | Test E rating (% disease control) [1]: 99%; Test G rating (% disease control) [2]: 99%; Test H rating (% disease control) [3]: 99%; Test A rating (% disease control) [4]: 100%; Test I rating (% disease control) ([5]; wheat powdery mildew): 100%; Test F rating (% disease control) [6]: 100%; Test B rating (% disease control) [7]: 100%
Cc1nn(C)c(Nc2c(Cl)cc(F)cc2Cl)c1-c1ccc(Cl)cc1Cl [compound 132] | 0% | 0% | 96% | 93% | 43% | 99% | 0% | –
COc1cc(F)c(-c2c(C)nn(C)c2Oc2c(F)cc(Cl)cc2F)c(F)c1 [Compound 15] | 89% | 82% | 100% | 98% | 100% | 98% | 100% | –
Cc1nn(C)c(Nc2c(F)cc(Cl)cc2F)c1-c1ccc(Cl)cc1F [compound 230] | – | – | – | – | – | – | – | Test E rating (% disease control) [1]: 0%; Test G rating (% disease control) [2]: 0%; Test H rating (% disease control) [3]: 94%; Test A rating (% disease control) [4]: 40%; Test I rating (% disease control) ([5]; wheat powdery mildew): 95%; Test F rating (% disease control) [6]: 100%; Test B rating (% disease control) [7]: 0%
Cc1nn(C)c(Nc2c(F)cc(F)cc2Cl)c1-c1ccc(Cl)cc1Cl [compound 156] | 73% | 31% | 99% | 100% | 99% | 100% | 99% | –
Cc1nn(C)c(Nc2c(F)cc(Cl)cc2F)c1-c1ccc(F)cc1I [compound 225] | – | – | – | – | – | – | – | Test E rating (% disease control) [1]: 0%; Test G rating (% disease control) [2]: 0%; Test H rating (% disease control) [3]: 99%; Test A rating (% disease control) [4]: 99%; Test I rating (% disease control) ([5]; wheat powdery mildew): 100%; Test F rating (% disease control) [6]: 100%; Test B rating (% disease control) [7]: 68%
Cc1nn(C)c(Nc2ccc(F)cc2Cl)c1-c1ccc(F)cc1F [compound 61] | 64% | 0% | 99% | 100% | 100% | 100% | 93% | –
Cc1nn(C)c(Oc2ccc(C#N)cc2Cl)c1-c1c(F)cccc1F [Compound 127, 3-chloro-4-[[4-(2,6-difluorophenyl)-1,3-dimethyl-1H-pyrazol-5-yl]oxy]benzonitrile] | – | – | – | – | – | – | – | pest or weed control at 200 µg/mL [1]: 0%; pest or weed control at 200 µg/mL [2]: 0%; pest or weed control at 200 µg/mL [3]: 97%; pest or weed control at 200 µg/mL [4]: 99%; pest or weed control at 200 µg/mL [5]: 97%; pest or weed control at 200 µg/mL [6]: 100%; pest or weed control at 200 µg/mL [7]: 0%
COc1ccc(Nc2c(-c3c(F)cccc3F)c(C)nn2C)c(F)c1 [compound 51] | 0% | 0% | 68% | 100% | 100% | 98% | 99% | –
Cc1nn(C)c(Nc2ccc(F)cc2F)c1-c1ccc(Cl)cc1Cl [Compound 17, 4-(2,4-dichlorophenyl)-N-(2,4-difluorophenyl)-1,3-dimethyl-1H-pyrazol-5-amine] | – | – | – | – | – | – | – | pest or weed control at 200 µg/mL [1]: 60%; pest or weed control at 200 µg/mL [2]: 91%; pest or weed control at 200 µg/mL [3]: 99%; pest or weed control at 200 µg/mL [4]: 100%; pest or weed control at 200 µg/mL [5]: 100%; pest or weed control at 200 µg/mL [6]: 99%; pest or weed control at 200 µg/mL [7]: 73%
COc1cc(F)c(-c2c(C)nn(C)c2Oc2c(F)cc(Br)cc2F)c(F)c1 [compound 24] | 84% | 0% | 98% | 99% | 100% | 100% | 95% | –
Cc1nn(C)c(Nc2ccc(C#N)cc2Cl)c1-c1ccc(F)cc1Cl [compound 44] | 0% | 8% | 98% | 99% | 94% | 99% | 0% | –
COc1ccc(-c2c(C)nn(C)c2Oc2ccc(C#N)cc2F)c(Br)c1 [compound 100] | 100% | 0% | 99% | 92% | 95% | 100% | 88% | –
